# Assay results reported in PubChem BioAssay AID1963985 (Molecular Pharmacology Branch, DTP, NCI, 2024).
# Where “and” joins values, the source holds several entries; their conditions need not be identical. Equal values may be shown once.
# System: 252836-082-R-J2-PDC tumor spheroids, viability
# Experiment: Anticancer human tumor 252836-082-R-J2-PDC patient-derived head and neck squamous cell carcinoma cell line growth inhibition [PI3K]
# Settings: spheroids with HUVEC and MSC; for viability, T/C: stronger effect = lower value
# Excerpt: Combinatorial screen of targeted agents with the PI3K inhibitors inavolisib, alpelisib, duvelisib, and copanlisib in multi-cell type tumor spheroids
# A high-throughput screen of multi-cell type tumor spheroids was designed to identify active combinations of targeted small molecules and PI3K pathway inhibitors. Complex spheroids include a stromal component modeled by human endothelial cells (HUVEC) and fibroblasts modeled by human mesenchymal stem cells (MSCs). The concentration ranges selected for each drug and investigational agent were based upon clinically achievable concentrations if the clinical Cmax of the agent was known.
# Compounds. The drugs and investigational agents: inavolisib (NSC800729), alpelisib (NSC765974), duvelisib (NSC772469), copanlisib (NSC816437), ipatasertib (NSC767898), afuresertib (NSC778305), talazoparib (NSC767125), sapanisertib (NSC764658), selumetinib (NSC741078), tovorafenib (DAY101, NSC766906), vemurafenib (NSC761431), ravoxertinib (NSC781343), sotorasib (NSC818433), MRTX1133 (NSC 836407), abemaciclib (NSC 768073), palbociclib (NSC758247), venetoclax (NSC 766270), SY5609 (NSC837396), enzalutamide (NSC755605), and darolutamide (NSC825331), were obtained from the National Cancer Institute (NCI) Developmental Therapeutics Program Chemical Repository. The FDA-approved anticancer drug set is available from the NCI Developmental Therapeutics Program. […] The stock solutions were prepared in dimethyl sulfoxide (DMSO, Sigma-Aldrich, St. Louis, MO, cat. D2650) at 800-fold the tested concentration and stored at -70 degrees C prior to their use. All drugs and investigational agents were tested over a range starting from a high concentration at or near the clinical Cmax and decreasing in half-log increments. If the clinical Cmax for an agent had not been determined, the highest concentration tested was 10 microM.
# Cell Culture. All cells were maintained in an incubator at 37 degrees C and 5% CO2 with 95% humidity. The PDC lines were cultured according to standard operating procedures established by the NCI PDMR (https://pdmr.cancer.gov/sops/default.htm). All PDCs were thawed and cultured in Matrigel-coated flasks prepared with a working solution of 1X Ham's F-12 nutrient mix, without supplementation (Invitrogen, Waltham, MA, cat. 11765054), 100 U/mL penicillin-streptomycin (Invitrogen, cat. 15140122), and 2.5% Matrigel (Corning Inc., Corning, NY, cat. 354248) for the first three passages. The 354836-022-R-J1-PDC, 475296-252-R-J1-PDC, and 997726-040-R-J2-PDC lines were cultured in 6A media, which includes advanced DMEM/F-12 (Thermo Fisher Scientific, cat. 12634028), 10 mM HEPES (Thermo Fisher Scientific, cat. 15630080), 1X GlutaMAX supplement (Thermo Fisher Scientific, cat. 35050061), 0.1 mg/mL primocin (InvivoGen, San Diego, CA, cat. ant-pm-2), 10% defined fetal bovine serum, heat inactivated (HyClone Laboratories Inc., Logan, UT, cat. SH30070.03HI), 50% L-WRN conditioned media (ATCC, cat. CRL-3276), 1.25 mM N-Acetyl-L-cysteine (Sigma-Aldrich, cat. A9165), 10 mM nicotinamide (Sigma-Aldrich, cat. N0636), 1X B-27 supplement (Thermo Fisher Scientific, cat. 17504044), 1X N-2 supplement (Thermo Fisher Scientific, cat. 17502048), and 10 microM Y-27632 dihydrochloride (Tocris Bioscience, Bristol, United Kingdom, cat. 1254). The 624824-186-R-J2-PDC line was cultured in 6C/Colon 1B media, which includes all 6A media components plus 50 ng/mL human EGF recombinant protein (Thermo Fisher Scientific, cat. PHG0311). […]
# [1] = curve of first compound, second compound 0.0316 µM
# [2] = curve of first compound, second compound 0.1 µM
# [3] = curve of first compound, second compound 0.316 µM
# [4] = curve of first compound, second compound 1 µM
# [5] = second compound 0.0316 µM, first compound 0.0316 µM
# [6] = second compound 0.0316 µM, first compound 0.1 µM
# [7] = second compound 0.0316 µM, first compound 0.316 µM
# [8] = second compound 0.0316 µM, first compound 1 µM
# [9] = second compound 0.0316 µM, first compound 3.16 µM
# [10] = second compound 0.0316 µM, first compound 10 µM
# [11] = second compound 0.1 µM, first compound 0.0316 µM
# [12] = second compound 0.1 µM, first compound 0.1 µM
# [13] = second compound 0.1 µM, first compound 0.316 µM
# [14] = second compound 0.1 µM, first compound 1 µM
# [15] = second compound 0.1 µM, first compound 3.16 µM
# [16] = second compound 0.1 µM, first compound 10 µM
# [17] = second compound 0.316 µM, first compound 0.0316 µM
# [18] = second compound 0.316 µM, first compound 0.1 µM
# [19] = second compound 0.316 µM, first compound 0.316 µM
# [20] = second compound 0.316 µM, first compound 1 µM
# [21] = second compound 0.316 µM, first compound 3.16 µM
# [22] = second compound 0.316 µM, first compound 10 µM
# [23] = second compound 1 µM, first compound 0.0316 µM
# [24] = second compound 1 µM, first compound 0.1 µM
# [25] = second compound 1 µM, first compound 0.316 µM
# [26] = second compound 1 µM, first compound 1 µM
# [27] = second compound 1 µM, first compound 3.16 µM
# [28] = second compound 1 µM, first compound 10 µM
# 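Further: spheroids exposed to agents for seven days before readout.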
# 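Wherever viability, T/C is given: percent of vehicle DMSO control viability so 100% = untreated growth.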
smiles,measurement,setting,value
CC(Cn1ccc(-c2ccc(C#N)c(Cl)c2)n1)NC(=O)c1cc(C(C)O)[nH]n1 (stereo not drawn) + Cc1nc(NC(=O)N2CCCC2C(N)=O)sc1-c1ccnc(C(C)(C)C(F)(F)F)c1,IC50,[1],> 10 µM
same,IC50,[2],> 10 µM
same,IC50,[3],> 10 µM
same,IC50,[4],> 10 µM
same,IC50,"curve of first compound, second compound 3.16 µM",< 0.0316 µM
same,IC50,"curve of first compound, second compound 10 µM",< 0.0316 µM
same,"viability, T/C",[5],76.5%
same,"viability, T/C",[6],75.4%
same,"viability, T/C",[7],96%
same,"viability, T/C",[8],85.9%
same,"viability, T/C",[9],94.3%
same,"viability, T/C",[10],71.5%
same,"viability, T/C",[11],99.7%
same,"viability, T/C",[12],85.1%
same,"viability, T/C",[13],80.8%
same,"viability, T/C",[14],85%
same,"viability, T/C",[15],86.2%
same,"viability, T/C",[16],81.5%
same,"viability, T/C",[17],65.4%
same,"viability, T/C",[18],70.9%
same,"viability, T/C",[19],72.6%
same,"viability, T/C",[20],74.5%
same,"viability, T/C",[21],100%
same,"viability, T/C",[22],64.7%
same,"viability, T/C",[23],53.4%
same,"viability, T/C",[24],58.3%
same,"viability, T/C",[25],55.5%
same,"viability, T/C",[26],60.8%
same,"viability, T/C",[27],54.7%
same,"viability, T/C",[28],53%
same,"viability, T/C","second compound 3.16 µM, first compound 0.0316 µM",46.5%
same,"viability, T/C","second compound 3.16 µM, first compound 0.1 µM",48.2%
same,"viability, T/C","second compound 3.16 µM, first compound 0.316 µM",44.5%
same,"viability, T/C","second compound 3.16 µM, first compound 1 µM",55.3%
same,"viability, T/C","second compound 3.16 µM, first compound 3.16 µM",40.8%
same,"viability, T/C","second compound 3.16 µM, first compound 10 µM",42.9%
same,"viability, T/C","second compound 10 µM, first compound 0.0316 µM",34%
same,"viability, T/C","second compound 10 µM, first compound 0.1 µM",37.3%
same,"viability, T/C","second compound 10 µM, first compound 0.316 µM",39.2%
same,"viability, T/C","second compound 10 µM, first compound 1 µM",37.3%
same,"viability, T/C","second compound 10 µM, first compound 3.16 µM",34.2%
same,"viability, T/C","second compound 10 µM, first compound 10 µM",31.1%
CC(C)NCC(C(=O)N1CCN(c2ncnc3c2C(C)CC3O)CC1)c1ccc(Cl)cc1 (stereo not drawn),"viability, T/C",compound 0.0316 µM,84.2% [middle of 4 runs]
same,"viability, T/C",compound 0.1 µM,96.8% [middle of 4 runs]
same,"viability, T/C",compound 0.316 µM,87.8% (2×) and 61.1% and 70.6%
same,"viability, T/C",compound 1 µM,45.1% [middle of 4 runs]
same,"viability, T/C",compound 3.16 µM,31.7% [middle of 4 runs]
same,"viability, T/C",compound 10 µM,19.7% [middle of 4 runs]
same,IC50,curve of compound,850 nM [middle of 4 runs]
CCCS(=O)(=O)Nc1ccc(F)c(C(=O)c2c[nH]c3ncc(-c4ccc(Cl)cc4)cc23)c1F + COc1c(OCCCN2CCOCC2)ccc2c3n(c(=NC(=O)c4cnc(N)nc4)nc12)CCN3,IC50,"curve of first compound, second compound 0.00316 µM",4.4 µM
same,IC50,"curve of first compound, second compound 0.01 µM",4.97 µM
same,IC50,[1],2.96 µM
same,IC50,[2],< 0.0316 µM
same,IC50,[3],< 0.0316 µM
same,IC50,[4],< 0.0316 µM
same,"viability, T/C","second compound 0.00316 µM, first compound 0.0316 µM",88.2%
same,"viability, T/C","second compound 0.00316 µM, first compound 0.1 µM",92.8%
same,"viability, T/C","second compound 0.00316 µM, first compound 0.316 µM",80.6%
same,"viability, T/C","second compound 0.00316 µM, first compound 1 µM",90.1%
same,"viability, T/C","second compound 0.00316 µM, first compound 3.16 µM",67.2%
same,"viability, T/C","second compound 0.00316 µM, first compound 10 µM",7.48%
same,"viability, T/C","second compound 0.01 µM, first compound 0.0316 µM",71.8%
same,"viability, T/C","second compound 0.01 µM, first compound 0.1 µM",73.6%
same,"viability, T/C","second compound 0.01 µM, first compound 0.316 µM",72.9%
same,"viability, T/C","second compound 0.01 µM, first compound 1 µM",87.5%
same,"viability, T/C","second compound 0.01 µM, first compound 3.16 µM",79.7%
same,"viability, T/C","second compound 0.01 µM, first compound 10 µM",8.12%
same,"viability, T/C",[5],64.8%
same,"viability, T/C",[6],57.6%
same,"viability, T/C",[7],67.9%
same,"viability, T/C",[8],59%
same,"viability, T/C",[9],49.8%
same,"viability, T/C",[10],9.78%
same,"viability, T/C",[11],32.3%
same,"viability, T/C",[12],39.8%
same,"viability, T/C",[13],43.3%
same,"viability, T/C",[14],43.3%
same,"viability, T/C",[15],31.7%
same,"viability, T/C",[16],4.74%
same,"viability, T/C",[17],16.1%
same,"viability, T/C",[18],15.8%
same,"viability, T/C",[19],16.7%
same,"viability, T/C",[20],19.4%
same,"viability, T/C",[21],18.1%
same,"viability, T/C",[22],1.83%
same,"viability, T/C",[23],5.69%
same,"viability, T/C",[24],5.15%
same,"viability, T/C",[25],7.11%
same,"viability, T/C",[26],7.02%
same,"viability, T/C",[27],5.99%
same,"viability, T/C",[28],1.31%
Cn1nccc1Nc1nccc(-c2ccn(C(CO)c3ccc(Cl)c(F)c3)c(=O)c2)n1 (stereo not drawn),"viability, T/C",compound 0.0316 µM,95.5% [middle of 4 runs]
same,"viability, T/C",compound 0.1 µM,100% [middle of 4 runs]
same,"viability, T/C",compound 0.316 µM,96.9% [middle of 4 runs]
same,"viability, T/C",compound 1 µM,96.5% [middle of 4 runs]
same,"viability, T/C",compound 3.16 µM,85.2% [middle of 4 runs]
same,"viability, T/C",compound 10 µM,74.2% [middle of 4 runs]
same,IC50,curve of compound,> 10 µM
